Where “and” joins values, the source holds several entries; their conditions need not be identical. Equal entries are not always repeated. Entries after “also recorded” stand apart in the source; their conditions may differ. Bridge positions count the residues as written; N and C are the ends. Square brackets hold non-standard residues; d marks the D form. Peptide text beside a SMILES is read from it.
Key:
mouse KOR [1] = target: T1, mouse KOR (Mus musculus, UniProt P33534); experiment: Functional cAMP assay; type: cell-based; conditions: for KOR activation in cAMP assay (in words): HEK293 cells stably expressing mouse KOR; for Emax: normalized to dyn A 1–13 = 100%, read-out: efficacy cAMP Emax ± SD
mouse KOR [2] = target: T1, mouse KOR; experiment: Radioligand competition binding assay ([3H]-diprenorphine displacement); conditions: 1 nM [3H]-diprenorphine, HEK293 cell membranes stably expressing mouse KOR; read-out: affinity Ki ± SD
[3] = target: T2, mouse KOR-EGFP and β-arrestin-2-nano-luciferase (Mus musculus, UniProt P33534); experiment: BRET β-arrestin-2 recruitment assay; type: cell-based; conditions: normalized to maximum recruitment of dyn A 1–13
T2 construct: expressed in transfected cells; host or cells: HEK293 (transient, jetPRIME)

[4] = system: motor coordination in mice; conditions: mouse, in vivo, ip, 5 mg/kg
[5] = Peptide stability in simulated gastric fluid; type: in vitro ADME; conditions: SGF pH 1.2 with pepsin, 37 °C
[6] = system: colonic nociceptors from CVH mice; experiment: Ex vivo assessment of colonic nociceptor mechanosensitivity; parameters: species or system mouse
Description: Single-unit extracellular recordings from splanchnic colonic afferent nerves were performed as previously described.[42],[43],[45],[46],[78] […] The tissue was transferred to ice-cold Krebs solution, and after further dissection, the distal colon was opened longitudinally and pinned flat with its mucosal side up in a specialized, SYLGARD 184-lined (Dow Corning Corp., Midland, MI) organ bath consisting of two adjacent, clear acrylic compartments (Danz Instrument Service, Adelaide, South Australia, Australia). The neurovascular bundle containing the splanchnic nerve was extended from the tissue compartment and laid onto a mirror in the recording compartment. A movable wall with a small “mouse hole” was lowered into position to allow passage of the nerves, and the recording chamber was filled with paraffin oil. The colonic compartment was superfused with a modified Krebs solution (117.9 mM NaCl, 4.7 mM KCl, 25 mM NaHCO3, 1.3 mM NaH2PO4, 1.2 mM MgSO4(H2O)7, 2.5 mM CaCl2, and 11.1 mM D-glucose) and gassed with carbogen (95% O2 and 5% CO2) at a temperature of 34 °C. Smooth muscle activity and endogenous prostaglandins were suppressed by the addition of the L-type calcium channel antagonist nifedipine (1 μM) and prostaglandin synthesis inhibitor indomethacin (3 μM), respectively. […]

SMILES | Emax (mouse KOR [1]) [%] | Ki (mouse KOR [2]) [µM] | also measured
CC[C@H](C)[C@@H]1NC(=O)[C@H](CCCNC(=N)N)NC(=O)[C@H](CCCNC(=N)N)NC(=O)[C@H](CC(C)C)NC(=O)[C@H](Cc2ccccc2)NC(=O)CNC(=O)CNC(=O)[C@H](Cc2ccc(O)cc2)NC(=O)[C@@H]2CSSC[C@H](NC(=O)[C@H](CCCCN)NC(=O)[C@H](CC(C)C)NC(=O)[C@H](CCCCN)NC(=O)[C@@H]3CCCN3C(=O)[C@H](CCCNC(=N)N)NC1=O)C(=O)N[C@@H]([C@@H](C)O)C(=O)N[C@@H](CCCCN)C(=O)N[C@@H](CO)C(=O)N[C@@H]([C@@H](C)CC)C(=O)N1CCC[C@H]1C(=O)N1CCC[C@H]1C(=O)N[C@@H]([C@@H](C)CC)C(=O)N2 [helianorphin-2] (cyclo(CTKSIPPICYGGFLRRIRPKLK); disulfide 1-9) | 102 ± 10 | – | KOR activation in cAMP assay (in words) (mouse KOR [1]): fully activated the receptor
CC[C@H](C)[C@@H]1NC(=O)[C@H](CCCNC(=N)N)NC(=O)[C@H](CC(C)C)NC(=O)[C@H](Cc2ccccc2)NC(=O)CNC(=O)CNC(=O)[C@H](Cc2ccc(O)cc2)NC(=O)[C@@H]2CSSC[C@H](NC1=O)C(=O)N[C@@H](Cc1ccccc1)C(=O)N1CCC[C@H]1C(=O)N[C@@H](CC(=O)O)C(=O)NCC(=O)N[C@@H](CCCNC(=N)N)C(=O)N2 [helianorphin-5] (cyclo(CFPDGRCYGGFLRI); disulfide 1-7) | – | > 10 | –
CCCC[C@H]1NC(=O)[C@@H](Cc2ccccc2)NC(=O)[C@@H](Cc2ccccc2)NC(=O)[C@H]([C@@H](C)O)NC(=O)[C@@H]2CSSC[C@H](NC(=O)[C@H]([C@@H](C)CC)NC(=O)[C@@H]3CCCN3C(=O)[C@@H](CCCNC(=N)N)NC1=O)C(=O)N[C@@H](Cc1ccccc1)C(=O)N1CCC[C@H]1C(=O)N[C@@H](CC(=O)O)C(=O)NCC(=O)N[C@@H](CCCNC(=N)N)C(=O)N2 [helianorphin-12] | 117 ± 12 | – | KOR activation in cAMP assay (in words) (mouse KOR [1]): fully activates the KOR
CC(C)C[C@@H]1NC(=O)[C@H](Cc2ccccc2)NC(=O)CNC(=O)CNC(=O)[C@H](Cc2ccc(O)cc2)NC(=O)[C@H]([C@@H](C)O)NC(=O)[C@@H]2CSSC[C@H](NC(=O)[C@H](CCCNC(=N)N)NC1=O)C(=O)N[C@@H](Cc1ccccc1)C(=O)N1CCC[C@H]1C(=O)N[C@@H](CC(=O)O)C(=O)NCC(=O)N[C@@H](CCCNC(=N)N)C(=O)N2 [helianorphin-6] (cyclo(CFPDGRCTYGGFLR); disulfide 1-7) | – | > 10 | –
CC[C@H](C)[C@@H]1NC(=O)[C@@H]2CSSC[C@H](NC(=O)[C@H](CCCCN)NC(=O)[C@H](CC(C)C)NC(=O)[C@H](CCCCN)NC(=O)[C@@H]3CCCN3C(=O)[C@H](CCCNC(=N)N)NC1=O)C(=O)N[C@@H](Cc1ccc(O)cc1)C(=O)NCC(=O)NCC(=O)N[C@@H](Cc1ccccc1)C(=O)N[C@@H](CC(C)C)C(=O)N[C@@H](CCCNC(=N)N)C(=O)N[C@@H](CCCNC(=N)N)C(=O)N2 [helianorphin-19] (cyclo(CIRPKLKCYGGFLRR); disulfide 1-8) | 108 ± 11 | – | β-arrestin-2 recruitment Emax [3]: 41.1 ± 3.7% and 41%; rotarod performance (latency to fall) [4]: did not impair rotarod performance
CC[C@H](C)[C@@H]1NC(=O)[C@@H]2CCCN2C(=O)[C@@H]2CCCN2C(=O)[C@H]([C@@H](C)CC)NC(=O)[C@H](CO)NC(=O)[C@H](C)NC(=O)[C@H]([C@@H](C)O)NC(=O)[C@@H]2CSSC[C@H](NC1=O)C(=O)N[C@@H](Cc1ccc(O)cc1)C(=O)NCC(=O)NCC(=O)N[C@@H](Cc1ccccc1)C(=O)N[C@@H](CC(C)C)C(=O)N[C@@H](CCCNC(=N)N)C(=O)N2 [helianorphin-7] (cyclo(ASIPPICYGGFLRCT); disulfide 7-14) | – | > 10 | –
CC[C@H](C)[C@@H]1NC(=O)[C@@H]2CCCN2C(=O)[C@@H](CCCCN)NC(=O)[C@@H](CC(C)C)NC(=O)[C@@H](Cc2ccccc2)NC(=O)[C@@H](Cc2ccccc2)NC(=O)[C@H]([C@@H](C)O)NC(=O)[C@@H]2CSSC[C@H](NC1=O)C(=O)N[C@@H](Cc1ccccc1)C(=O)N1CCC[C@H]1C(=O)N[C@@H](CC(=O)O)C(=O)NCC(=O)N[C@@H](CCCNC(=N)N)C(=O)N2 [helianorphin-10] (cyclo(CFPDGRCT[dF][dF][dL][dK]PI); disulfide 1-7) | – | > 10 | –
CC[C@H](C)[C@@H]1NC(=O)[C@H](CCCNC(=N)N)NC(=O)[C@H](CCCNC(=N)N)NC(=O)[C@H](CC(C)C)NC(=O)[C@H](Cc2ccccc2)NC(=O)CNC(=O)CNC(=O)[C@H](Cc2ccc(O)cc2)NC(=O)[C@@H]2CSSC[C@H](NC1=O)C(=O)N[C@@H](Cc1ccccc1)C(=O)N1CCC[C@H]1C(=O)N[C@@H](CC(=O)O)C(=O)NCC(=O)N[C@@H](CCCNC(=N)N)C(=O)N2 [helianorphin-3] | 85.1 ± 1.8 | – | –
CC[C@H](C)[C@@H]1NC(=O)[C@H](CCCNC(=N)N)NC(=O)[C@H](CCCNC(=N)N)NC(=O)[C@H](CC(C)C)NC(=O)[C@H](Cc2ccccc2)NC(=O)CNC(=O)CNC(=O)[C@H](Cc2ccc(O)cc2)NC(=O)[C@@H]2CSSC[C@H](NC(=O)[C@H](CCCCN)NC(=O)[C@H](CC(C)C)NC(=O)[C@H](CCCCN)NC(=O)[C@@H]3CCCN3C(=O)[C@H](CCCNC(=N)N)NC1=O)C(=O)N[C@@H](Cc1ccccc1)C(=O)N1CCC[C@H]1C(=O)N[C@@H](CC(=O)O)C(=O)NCC(=O)N[C@@H](CCCNC(=N)N)C(=O)N2 [helianorphin-1] | 106 ± 8.4 | – | KOR activation in cAMP assay (in words) (mouse KOR [1]): fully activated the receptor
CC[C@H](C)[C@H](NC(=O)[C@H](CCCN=C(N)N)NC(=O)[C@H](CCCN=C(N)N)NC(=O)[C@H](CC(C)C)NC(=O)[C@H](Cc1ccccc1)NC(=O)CNC(=O)CNC(=O)[C@@H](N)Cc1ccc(O)cc1)C(=O)N[C@@H](CCCN=C(N)N)C(=O)N1CCC[C@H]1C(=O)N[C@@H](CCCCN)C(=O)N[C@@H](CC(C)C)C(=O)N[C@@H](CCCCN)C(N)=O [dyn A 1–13] | – | – | degradation in simulated gastric fluid (in words) [5]: fully degraded after 15 min
CC[C@H](C)[C@@H]1NC(=O)[C@H](CCCNC(=N)N)NC(=O)[C@H](CCCNC(=N)N)NC(=O)[C@H](CC(C)C)NC(=O)[C@H](Cc2ccccc2)NC(=O)CNC(=O)CNC(=O)[C@H](Cc2ccc(O)cc2)NC(=O)[C@@H]2CSSC[C@H](NC1=O)C(=O)N[C@@H]([C@@H](C)O)C(=O)N[C@@H](CCCCN)C(=O)N[C@@H](CO)C(=O)N[C@@H]([C@@H](C)CC)C(=O)N1CCC[C@H]1C(=O)N1CCC[C@H]1C(=O)N[C@@H]([C@@H](C)CC)C(=O)N2 [helianorphin-4] (cyclo(CTKSIPPICYGGFLRRI); disulfide 1-9) | 87.8 ± 33 | – | –
Oc1ccc2c3c1O[C@H]1c4[nH]c5c(c4C[C@@]4(O)[C@@H](C2)N(CC2CC2)CC[C@]314)C[C@@]1(O)[C@H]2Cc3ccc(O)c4c3[C@@]1(CCN2CC1CC1)[C@H]5O4 [nor-BNI, norbinaltorphimine] | – | – | effect on helianorphin-19-induced inhibition of colonic nociceptor mechanosensitivity ([6]; 0.1 μM nor-BNI plus 1 μM helianorphin-19): prevented helianorphin-19-induced inhibition of colonic nociceptor mechanosensitivity; also recorded: did block helianorphin-19 (1 μM)-induced inhibition of colonic nociceptor action potential firing; colonic nociceptor mechanosensitivity, antagonist alone ([6]; 0.1 μM, 5 min pre-incubation): did not affect CVH colonic nociceptor responses to mechanical stimuli; also recorded: did not affect nociceptor mechanosensitivity

Source: PMC8273886 (Journal of Medicinal Chemistry, 2021)
